Reference: paper PMC8286840, “Identifying SARS-CoV-2 antiviral compounds by screening for small molecule inhibitors of Nsp3 papain-like protease” (Biochemical Journal, 2021)
Structures can show the parent of a compound that is named as a salt. Where two headings read alike, the source gives them in different places.

What was measured:
[1] = biological target: T1, SARS-CoV-2 PLpro (nsp3 1564–1878) (Severe acute respiratory syndrome coronavirus 2, UniProt P0DTD1); test: biochemical; design: FRET-quenched peptide (Pro3) cleavage by PLpro, 10 min pre-incubation, slope over 20 min, normalised to no-compound control; conditions: low concentration screen, read-out: % of control remaining
[2] = biological target: T1, SARS-CoV-2 PLpro (nsp3 1564–1878); test: biochemical; design: FRET-quenched peptide (Pro3) cleavage by PLpro, 10 min pre-incubation, slope over 20 min, normalised to no-compound control; conditions: high concentration screen, read-out: % of control remaining

In the case of `Nc1ccn([C@@H]2O[C@H](CO)[C@@H](O)[C@@H]2O)c(=O)n1` [Cytosine-1-beta-D-arabinofuranoside hydrochloride], the remaining activity at 1.25 µM ([1]; Well no.=374) is reported as 94.2% and the remaining activity at 3.75 µM ([2]; Well no.=374) is reported as 89.3%.

For `Nc1cc[nH]c(=O)n1` [Cytosine], the remaining activity at 1.25 µM ([1]; Well no.=6579) was 101% and the remaining activity at 3.75 µM ([2]; Well no.=6579) was 103%.

`CCCCCCCC(=O)c1c(O)cc(O)cc1CC(=O)OCC` [Cytosporone B] gave a remaining activity at 1.25 µM ([1]; Well no.=5993) of 98.3% and a remaining activity at 3.75 µM ([2]; Well no.=5993) of 98.7%.

`N[C@H](CCCCCP(=O)(O)O)C(=O)O` [D(-)-2-Amino-7-phosphonoheptanoic acid] showed a remaining activity at 1.25 µM ([1]; Well no.=352) of 96.5% and a remaining activity at 3.75 µM ([2]; Well no.=352) of 98.1%.

Compound `CC[C@@H](N)C(=O)O` [D(-)-2-Aminobutyric acid] has a remaining activity at 1.25 µM ([1]; Well no.=7701) of 97.2% and a remaining activity at 3.75 µM ([2]; Well no.=7701) of 92.5%.

`C[C@@H](N)C(=O)O` [D-Alanine] gave a remaining activity at 1.25 µM ([1]; Well no.=7693) of 107% and a remaining activity at 3.75 µM ([2]; Well no.=7693) of 105%.

With `OC[C@@H](O)C(O)[C@H](O)CO` [D-Arabitol] the remaining activity at 1.25 µM ([1]; Well no.=6501) was 92.6% and the remaining activity at 3.75 µM ([2]; Well no.=6501) was 93.2%.

Compound `N[C@@H]1CONC1=O` [D-Cycloserine] has a remaining activity at 1.25 µM ([1]; Well no.=78) of 100% and a remaining activity at 3.75 µM ([2]; Well no.=78) of 102%.

In the case of `O=C[C@H](O)[C@@H](O)[C@@H](O)[C@H](O)CO` [D-Galactose], the remaining activity at 1.25 µM ([1]; Well no.=6871) is reported as 103% and the remaining activity at 3.75 µM ([2]; Well no.=6871) is reported as 96.9%.

For `O=C[C@H](O)[C@@H](O)[C@H](O)[C@H](O)COP(=O)(O)O` [D-Glucose 6-Phosphate], the remaining activity at 1.25 µM ([1]; Well no.=7263) was 98.2% and the remaining activity at 3.75 µM ([2]; Well no.=7263) was 98.1%.

With `OC[C@@H](O)[C@@H](O)[C@H](O)[C@H](O)CO` [D-Mannitol] the remaining activity at 1.25 µM ([1]; Well no.=6397) was 104%, the remaining activity at 1.25 µM ([1]; Well no.=8434) was 96.7% and the remaining activity at 3.75 µM ([2]; Well no.=6397) was 96.4%. For the same compound, the remaining activity at 3.75 µM ([2]; Well no.=8434) was 96.1%.

For `OC[C@H]1OC(O)[C@@H](O)[C@@H](O)[C@@H]1O` (stereo partly drawn) [D-Mannose], the remaining activity at 1.25 µM ([1]; Well no.=7407) was 103% and the remaining activity at 3.75 µM ([2]; Well no.=7407) was 102%.

Work on `N[C@H](CO)C(=O)O` [D-Serine] yielded a remaining activity at 1.25 µM ([1]; Well no.=1362) of 92.8% and a remaining activity at 3.75 µM ([2]; Well no.=1362) of 93.5%.

In the case of `OC[C@@H](O)[C@@H](O)[C@H](O)[C@@H](O)CO` [D-Sorbitol], the remaining activity at 1.25 µM ([1]; Well no.=6253) is reported as 115% and the remaining activity at 3.75 µM ([2]; Well no.=6253) is reported as 112%.

`CCCCCCCCCCCCCC(=O)N[C@H](C)[C@@H](O)c1ccccc1` [D-erythro MAPP] gave a remaining activity at 1.25 µM ([1]; Well no.=4257) of 105% and a remaining activity at 3.75 µM ([2]; Well no.=4257) of 98.9%.

Work on `CCCCCCCCCCCCC/C=C/[C@@H](O)[C@@H](N)CO` [D-erythro-Sphingosine] yielded a remaining activity at 1.25 µM ([1]; Well no.=7207) of 100% and a remaining activity at 3.75 µM ([2]; Well no.=7207) of 96.9%.

Work on `NC(=O)CC[C@@H](N)C(=O)O` [D-glutamine] yielded a remaining activity at 1.25 µM ([1]; Well no.=4996) of 98.2% and a remaining activity at 3.75 µM ([2]; Well no.=4996) of 99.6%.

For `Nc1cccc(S(=O)(=O)N2CCCN(S(=O)(=O)c3ccc4c(c3)OCCO4)CC2)c1` [DASA-58], the remaining activity at 1.25 µM ([1]; Well no.=8818) was 95.3% and the remaining activity at 3.75 µM ([2]; Well no.=8818) was 96.9%.

Compound `Clc1ccc(N2C[C@H]3CC[C@@H](C2)N3)nn1` [DBO-83] has a remaining activity at 1.25 µM ([1]; Well no.=630) of 63.4% and a remaining activity at 3.75 µM ([2]; Well no.=630) of 98.1%.

For `CCCCc1ccc(NS(=O)(=O)c2ccc(F)cc2)cc1` [DC260126], the remaining activity at 1.25 µM ([1]; Well no.=6272) was 94.7% and the remaining activity at 3.75 µM ([2]; Well no.=6272) was 94.3%.

With `CCn1c(=O)[nH]c2cc(Cl)c(Cl)cc21` [DCEBIO] the remaining activity at 1.25 µM ([1]; Well no.=538) was 102% and the remaining activity at 3.75 µM ([2]; Well no.=538) was 104%.

`CCC(=O)N1CCN(C(=O)c2ccccc2)CC1` [DM 235] was tested, and the remaining activity at 1.25 µM ([1]; Well no.=453) was 96.3% and the remaining activity at 3.75 µM ([2]; Well no.=453) was 96%.

Compound `COc1cc(OC)c2cc(-c3ccncc3)cnc2c1` [DMPQ dihydrochloride] has a remaining activity at 1.25 µM ([1]; Well no.=5933) of 100% and a remaining activity at 3.75 µM ([2]; Well no.=5933) of 98.1%.

For `CC(=O)c1ccc(N2CCOCC2)cc1O` [DNA-PK Inhibitor III], the remaining activity at 1.25 µM ([1]; Well no.=2365) was 104% and the remaining activity at 3.75 µM ([2]; Well no.=2365) was 105%.

`O=C(c1ccccc1)c1ccc(N2CCOCC2)cc1O` [DNA-PK Inhibitor V] gave a remaining activity at 1.25 µM ([1]; Well no.=2657) of 95.5% and a remaining activity at 3.75 µM ([2]; Well no.=2657) of 101%.

Work on `Cc1nc2c(c(=O)[nH]1)CSCC2` [DR2313] yielded a remaining activity at 1.25 µM ([1]; Well no.=5778) of 96.1% and a remaining activity at 3.75 µM ([2]; Well no.=5778) of 96.7%.

Compound `c1ccc2c(c1)N=C(N1CCNCC1)c1ccccc1N2` [DREADD agonist 21] has a remaining activity at 1.25 µM ([1]; Well no.=6943) of 96.4% and a remaining activity at 3.75 µM ([2]; Well no.=6943) of 100%.

Compound `CCN(CCCl)Cc1ccccc1Br` [DSP-4 hydrochloride] has a remaining activity at 1.25 µM ([1]; Well no.=284) of 98.1% and a remaining activity at 3.75 µM ([2]; Well no.=284) of 98%.

For `CCCCCCOC(=O)NC(=N)c1ccc(NCc2nc3cc(C(=O)N(CCC(=O)OCC)c4ccccn4)ccc3n2C)cc1` [Dabigatran Etexilate], the remaining activity at 1.25 µM ([1]; Well no.=8192) was 95.6% and the remaining activity at 3.75 µM ([2]; Well no.=8192) was 82.3%.

With `CN(C)/N=N/c1[nH]cnc1C(N)=O` [Dacarbazine] the remaining activity at 1.25 µM ([1]; Well no.=1940) was 103% and the remaining activity at 3.75 µM ([2]; Well no.=1940) was 99.4%.

`COc1cc2ncnc(Nc3ccc(F)c(Cl)c3)c2cc1NC(=O)/C=C/CN1CCCCC1` [Dacomitinib (PF299804,PF-00299804)] was tested, and the remaining activity at 1.25 µM ([1]; Well no.=5027) was 94.2% and the remaining activity at 3.75 µM ([2]; Well no.=5027) was 95.4%.

`O=c1c(-c2ccc(O)cc2)coc2cc(O)ccc12` [Daidzein] showed a remaining activity at 1.25 µM ([1]; Well no.=438) of 102%, a remaining activity at 1.25 µM ([1]; Well no.=3219) of 103% and a remaining activity at 3.75 µM ([2]; Well no.=438) of 99.2%. For the same compound, the remaining activity at 3.75 µM ([2]; Well no.=3219) was 104%.

`O=c1c(-c2ccc(O)cc2)coc2cc(O[C@@H]3O[C@H](CO)[C@@H](O)[C@H](O)[C@H]3O)ccc12` [Daidzin] showed a remaining activity at 1.25 µM ([1]; Well no.=3249) of 103% and a remaining activity at 3.75 µM ([2]; Well no.=3249) of 102%.

With `CCC(CC)CC1(C(=O)Nc2ccccc2SC(=O)C(C)C)CCCCC1` [Dalcetrapib (JTT-705, RO4607381)] the remaining activity at 1.25 µM ([1]; Well no.=8198) was 102% and the remaining activity at 3.75 µM ([2]; Well no.=8198) was 102%.

`CCN(CC)CCS(=O)(=O)[C@@H]1CCN2C(=O)c3coc(n3)CC(=O)C[C@H](O)/C=C(C)/C=C/CNC(=O)/C=C/[C@@H](C)[C@@H](C(C)C)OC(=O)[C@@H]12` [Dalfopristin] gave a remaining activity at 1.25 µM ([1]; Well no.=7876) of 95% and a remaining activity at 3.75 µM ([2]; Well no.=7876) of 93.8%.

`C#C[C@]1(O)CC[C@H]2[C@@H]3CCC4=Cc5oncc5C[C@]4(C)[C@H]3CC[C@@]21C` [Danazol] gave a remaining activity at 1.25 µM ([1]; Well no.=584) of 94.6%, a remaining activity at 1.25 µM ([1]; Well no.=1942) of 105% and a remaining activity at 3.75 µM ([2]; Well no.=584) of 97%. For the same compound, the remaining activity at 3.75 µM ([2]; Well no.=1942) was 106%.

`NCC(=O)N1C[C@H](NC(=O)c2ccccc2)C[C@H]1C(=O)O` [Danegaptide Hydrochloride] gave a remaining activity at 1.25 µM ([1]; Well no.=8026) of 98.8% and a remaining activity at 3.75 µM ([2]; Well no.=8026) of 100%.
